Laboratory results from PubChem BioAssay AID248 (DTP/NCI, 2004).
Several values for one entry are separate records, joined by “and”; a condition that tells them apart may be missing. Equal entries are not always repeated. Toxic doses and inconclusive results are not listed. Rule as the data show it: active = T/C of 150% or more; inactive = T/C below 125%.

Tested on: L1210 leukemia ip in BDF1 mice, survival T/C
Test: NCI In Vivo Anticancer Drug Screen. Data for tumor model L1210 Leukemia (intraperitoneal) in B6D2F1 (BDF1) mice
Settings: endpoint: mean survival time, higher = longer survival
Summary of the method: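 Value reflects the ratio of survival in compound-treated mice to survival in vehicle-treated controls, with both groups carrying the same transplanted tumor.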

[1] = dose: 100.0 mg/kg/injection, schedule: Q01DX001 (ip), vehicle: saline with Tween-80
[2] = dose: 200.0 mg/kg/injection, schedule: Q01DX001 (ip), vehicle: saline with Tween-80
[3] = dose: 400.0 mg/kg/injection, schedule: Q01DX001 (ip), vehicle: saline with Tween-80
[4] = dose: 100.0 mg/kg/injection, schedule: Q01DX009 (ip), vehicle: Klucel (hydroxypropylcellulose) (HPC)
[5] = dose: 100.0 mg/kg/injection, schedule: Q04DX003 (ip), vehicle: Klucel (hydroxypropylcellulose) (HPC)
[6] = dose: 200.0 mg/kg/injection, schedule: Q01DX009 (ip), vehicle: Klucel (hydroxypropylcellulose) (HPC)
[7] = dose: 200.0 mg/kg/injection, schedule: Q04DX003 (ip), vehicle: Klucel (hydroxypropylcellulose) (HPC)
[8] = dose: 400.0 mg/kg/injection, schedule: Q01DX009 (ip), vehicle: Klucel (hydroxypropylcellulose) (HPC)
[9] = dose: 400.0 mg/kg/injection, schedule: Q04DX003 (ip), vehicle: Klucel (hydroxypropylcellulose) (HPC)
[10] = dose: 150.0 mg/kg/injection, schedule: Q01DX001 (ip), vehicle: carboxymethylcellulose (CMC)
[11] = dose: 100.0 mg/kg/injection, schedule: Q01DX001 (ip), vehicle: saline
[12] = dose: 200.0 mg/kg/injection, schedule: Q01DX001 (ip), vehicle: saline
[13] = dose: 400.0 mg/kg/injection, schedule: Q01DX001 (ip), vehicle: saline
[14] = dose: 50.0 mg/kg/injection, schedule: Q01DX001 (ip), vehicle: saline
[15] = dose: 100.0 mg/kg/injection, schedule: Q04DX003 (ip), vehicle: saline with Tween-80
[16] = dose: 200.0 mg/kg/injection, schedule: Q04DX003 (ip), vehicle: saline with Tween-80
[17] = dose: 400.0 mg/kg/injection, schedule: Q04DX003 (ip), vehicle: saline with Tween-80

Measured: T/C

CCCCOCCCO
inactive: dose: 100.0 mg/kg/injection, schedule: Q01DX009 (ip), vehicle: saline 91 % of control | dose: 200.0 mg/kg/injection, schedule: Q01DX009 (ip), vehicle: saline 92 % of control | dose: 400.0 mg/kg/injection, schedule: Q01DX009 (ip), vehicle: saline 95 % of control

COc1cccc(/C=N\N=C\c2cccc(OC)c2O)c1O
inactive: [1] 91 % of control | [2] 103 % of control and 105 % of control | [3] 94 % of control and 95 % of control

CCC[CH2][Sn]([Cl])([CH2]CCC)[S]C(=S)NCCNC(=S)[S][Sn]([Cl])([CH2]CCC)[CH2]CCC
inactive: dose: 6.0 mg/kg/injection, schedule: Q04DX002 (ip), vehicle: other 98 % of control | dose: 12.0 mg/kg/injection, schedule: Q04DX002 (ip), vehicle: other 117 % of control | dose: 25.0 mg/kg/injection, schedule: Q04DX002 (ip), vehicle: other 102 % of control

CC(=O)Nc1ccc(N=Nc2ccccc2)cc1F
inactive: [4] 94 % of control | [5] 98 % of control | [6] 97 % of control | [7] 94 % of control | [8] 97 % of control | [9] 91 % of control

CCCCCCCCCCCCCCCC(=O)OCc1cc(=O)c(O)co1
inactive: [4] 95 % of control | [5] 91 % of control | [6] 101 % of control | [7] 94 % of control | [8] 97 % of control | [9] 94 % of control

CC(C)CC1NC(=O)C(C(C)C)NC(=O)CC(C)COC(=O)C(CC(C)C)N(C)C(=O)C(C(C)C)NC(=O)C(C(C)C)OC1=O (configuration not stated)
inactive: dose: 75.0 mg/kg/injection, schedule: Q01DX001 (ip), vehicle: carboxymethylcellulose (CMC) 96 % of control | [10] 96 % of control

COc1cc2c(cc1OC)C1(CCBr)C3CC4C(=CCOC5CC(=O)N2C1C54)CN3C(=O)Cc1ccccc1 (configuration not stated)
inactive: dose: 75.0 mg/kg/injection, schedule: Q01DX001 (ip), vehicle: saline 107 % of control

CC(=O)Oc1ccc(OC(C)=O)c([N+](=O)[O-])c1
inactive: [11] 103 % of control | [12] 102 % of control | [13] 103 % of control

CC(C)C1CCC2(CC1)CCN(CCCN(C)C)CC2
inactive: [14] 93 % of control | [11] 113 % of control

O=c1n(CCCl)c(=O)n(CCCl)c(=O)n1CCCl
inactive: dose: 50.0 mg/kg/injection, schedule: Q04DX003 (ip), vehicle: saline with Tween-80 103 % of control | [15] 88 % of control | [16] 96 % of control and 87 % of control | [17] 98 % of control

Nc1ncn(C(=S)Nc2ccccc2)n1
inactive: [14] 102 % of control | [11] 98 % of control | [12] 98 % of control | [13] 98 % of control

Cc1ccc([N+](=O)[O-])cc1NC(=O)Oc1ccc2c(C)cc(=O)oc2c1
inactive: dose: 100.0 mg/kg/injection, schedule: Q04DX002 (ip), vehicle: Klucel (hydroxypropylcellulose) (HPC) 101 % of control | dose: 400.0 mg/kg/injection, schedule: Q04DX002 (ip), vehicle: Klucel (hydroxypropylcellulose) (HPC) 95 % of control

CC1(C)SC(C)(C)N(C=O)C1C(=O)O (configuration not stated)
inactive: [11] 94 % of control | [4] 93 % of control | [5] 105 % of control | [12] 94 % of control | [6] 94 % of control | [7] 95 % of control | [13] 110 % of control | [8] 96 % of control | [9] 97 % of control

CCC(C)OC(=O)Nc1cccc(OC(=O)N(CC)CC)c1 (configuration not stated)
inactive: [1] 103 % of control | [2] 90 % of control | [3] 100 % of control

CSc1nc(Cl)c2ccn(C)c2n1
inactive: dose: 75.0 mg/kg/injection, schedule: Q01DX001 (ip), vehicle: other 100 % of control | dose: 150.0 mg/kg/injection, schedule: Q01DX001 (ip), vehicle: other 96 % of control | dose: 300.0 mg/kg/injection, schedule: Q01DX001 (ip), vehicle: other 100 % of control

[CH3][Sb]([CH3])([CH3])([O]C(=O)C(Cl)Cl)[O]C(=O)C(Cl)Cl
inactive: [15] 105 % of control | [16] 108 % of control | [17] 103 % of control

Nc1nc2nc(CCc3ccccc3)cnc2c(=O)[nH]1
inactive: dose: 25.0 mg/kg/injection, schedule: Q01DX001 (ip), vehicle: saline with Tween-80 96 % of control | dose: 50.0 mg/kg/injection, schedule: Q01DX001 (ip), vehicle: saline with Tween-80 93 % of control | [1] 90 % of control

COc1ccc(-c2cc(C(=O)N/N=C/c3ccc([N+](=O)[O-])cc3)c3ccc(C)cc3n2)cc1OC
inactive: [16] 86 % of control | [17] 94 % of control

c1ccc2c(c1)C1C3CCC(C3)C21 (configuration not stated)
inactive: [15] 98 % of control | [17] 98 % of control

CCOc1c(Br)cc(N=Cc2ccc(N(CCCl)CCCl)c(OC)c2)cc1Br
inactive: dose: 44.0 mg/kg/injection, schedule: Q01DX001 (ip), vehicle: carboxymethylcellulose (CMC) 120 % of control | [10] 123 % of control | dose: 200.0 mg/kg/injection, schedule: Q01DX001 (ip), vehicle: carboxymethylcellulose (CMC) 104 % of control
